Assay results as given in patent US20250255929A1, “METHODS FOR REDUCING RISKS ASSOCIATED WITH HEART FAILURE AND FACTORS ASSOCIATED THEREWITH” (Stealth BioTherapeutics Inc., priority 2012, published 2025).
Several values for one entry are separate records, joined by “and”; a condition that tells them apart may be missing. Equal values may be shown once. Square brackets hold non-standard residues; d marks the D form. Ends that are not written are not given here. Dmt = Cc1cc(O)cc(C)c1C[C@H](N)C(=O)O

Columns and labels:
Assay type in all cases: in vivo
ALCAT1 = ALCAT1 mRNA in LV tissue (real-time PCR), dog model of heart failure; settings: LV tissue of HF dogs, 3 months, 0.5 mg/kg once daily s.c., n=6; untreated HF increased 3.56-fold vs normal; normalized to GAPDH
Procedure: (§1) Heart failure was induced in dogs via multiple sequential intracoronary microembolizations as described in Sabbah, et al., Am J Physiol. (1991) 260:H1379-84, herein incorporated by reference in its entirety.
(§2) Twelve dogs were subject to coronary microembolization-induced heart failure (LV ejection fraction ˜30%) as described in Example 1. […] RNA was prepared from LV tissue of all 12 dogs at the end of the treatment phase and from the LV of 6 normal (NL) dogs for comparison. mRNA levels of Taz1, MLCL AT1 and ALCAT1 were determined by real-time PCR. Changes in mRNA expression were expressed as fold changes using the CT Method with normalization to […] (GAPDH) as internal control.

MLCL AT1 = MLCL AT1 mRNA in LV tissue (real-time PCR), dog model of heart failure; settings: LV tissue of HF dogs, 3 months, 0.5 mg/kg once daily s.c., n=6; untreated HF increased 2.60-fold vs normal; normalized to GAPDH
Procedure: as §1, §2

TNF-alpha = assay: Plasma TNF-alpha (double antibody sandwich ELISA) in dog model of heart failure; settings: for plasma TNF-alpha levels (FIG. 4), in words: HF dogs
Procedure: The methods of Example 1 was used induce heart failure, administer peptide or vehicle, and to collect plasma samples for analysis. Fourteen dogs were used in this example. Half the dogs were treated with the peptide; the other half were treated with drug vehicle and served as controls. Peptide treatment was started in both groups upon induction of heart failure (HF), defined as left ventricular ejection fraction of approximately 30%.
TNF-alpha was quantified in EDTA-plasma using a double antibody sandwich ELISA. Briefly, TNF-alpha (Canine TNFα Duo Sett, Cat #DY1507) was purchased from R&D Systems. The assay was performed based on instructions provided by the supplier with minor modifications. The amount of EDTA-plasma incubated with antibody plate was 150 μl and incubation time was 18 hours at 4° C. Using standard curves and software, the concentration of TNFα was expressed as pg/ml.

Taz1 = Taz1 mRNA in LV tissue (real-time PCR), dog model of heart failure; settings: LV tissue of HF dogs, 3 months, 0.5 mg/kg once daily s.c., n=6; untreated HF decreased 2.25-fold vs normal; normalized to GAPDH
Procedure: as §1, §2

NT-pro BNP = assay: Plasma NT-pro BNP (double antibody sandwich ELISA) in dog model of heart failure; settings: for plasma NT-pro BNP levels (FIG. 5), in words: HF dogs
Procedure: Heart failure was induced in dogs via multiple sequential intracoronary microembolizations as described in Sabbah, et al., Am J Physiol. (1991) 260:H1379-84, herein incorporated by reference in its entirety and summarized in Example 1.
Heart failure was induced as described in Example 1. […] Half the dogs were treated with the peptide; the other half were treated with drug vehicle and served as controls. Peptide treatment was started upon induction of heart failure (HF), defined as left ventricular ejection fraction of approximately 30%. The daily dose of the peptide was 0.5 mg/kg/day administered intravenously. Blood samples were drawn on EDTA anticoagulant and were centrifuged at 2,500 RPM and the plasma extracted, aliquoted in 1 ml volumes into crystat tubes and stored at −70° C. until assayed. Once the follow-up was completed in all dogs, the plasma samples were thawed to room temperature and NT-pro BNP was assayed.
Nt-pro BNP (pg/ml) was determined in EDTA-plasma on the principle of the double antibody sandwich Enzyme-linked immunosorbent assay (ELISA). The assay was performed based upon the instructions came along with the assay kit (NT-pro BNP, Kamiya Biomedical Company, Cat #KT-23770). Using standard curves with the help of Software (MasterPlex-2010), the concentration of each biomarker was determined.

interleukin-6 (IL-6) = assay: Plasma IL-6 (double antibody sandwich ELISA) in dog model of heart failure; settings: HF dogs
Procedure: The methods of Example 1 were used to induce heart failure, administer peptide or vehicle and collect plasma. Fourteen dogs were used in this example. Half the dogs were treated with the mitochondrial peptide; the other half were treated with drug vehicle and served as controls. Peptide treatment was started in both groups upon induction of heart failure (HF), defined as left ventricular ejection fraction of approximately 30%.
IL-6 was quantified in EDTA-plasma using the double antibody sandwich ELISA technique. Briefly, IL-6 (Canine IL-6 Duo Set, Cat #DY1609) was purchased from R&D Systems. The assay was performed based on instructions provided by the supplier with minor modifications. The amount of EDTA-plasma incubated with the antibody plate was 150 μl and incubation time was 18 hours at 4° C. Using standard curves and software, the concentration of IL-6 was expressed as pg/ml.

[1] = plasma, peptide group, individual dogs, heart failure prior to initiating therapy

## D-Arg-2′,6′-Dmt-Lys-Phe-NH2 ([dR][Dmt]KF-NH2) [aromatic-cationic peptide]
ALCAT1
  ALCAT1 mRNA: reduced increase, fold: 1.54 fold
MLCL AT1
  MLCL AT1 mRNA: reduced increase, fold: 1.18 fold
TNF-alpha; treatment for 12 weeks
  plasma TNF-alpha levels (FIG. 4), in words: near normal levels
TNF-alpha; treatment for six weeks
  plasma TNF-alpha levels (FIG. 4), in words: reduced TNF-alpha levels
TNF-alpha; plasma, individual HF dogs, 6 weeks after initiating therapy
  TNF-α concentration, 6 Wk: 3.27 pg/mL and 3.08 pg/mL and 3.50 pg/mL and 3.16 pg/mL and 3.72 pg/mL and 3.12 pg/mL and 2.60 pg/mL
TNF-alpha; plasma, individual HF dogs, 12 weeks after initiating therapy
  TNF-α concentration, 12 Wk: 1.14 pg/mL and 1.42 pg/mL and 1.18 pg/mL and 1.75 pg/mL and 1.69 pg/mL and 1.53 pg/mL and 1.35 pg/mL
TNF-alpha; plasma, mean of 7 HF dogs, 6 weeks after initiating therapy
  TNF-α concentration, 6 Wk, Mean: 3.21 pg/mL
TNF-alpha; plasma, mean of 7 HF dogs, 12 weeks after initiating therapy
  TNF-α concentration, 12 Wk, Mean: 1.44 pg/mL
TNF-alpha; plasma, peptide group mean (7 dogs), baseline (before HF and treatment)
  TNF-α concentration, BL, Mean: 1.24 pg/mL
TNF-alpha; plasma, peptide group mean (7 dogs), heart failure prior to initiating therapy
  TNF-α concentration, PRE, Mean: 4.36 pg/mL
TNF-alpha; plasma, peptide group, individual dogs, baseline (before HF and treatment)
  TNF-α concentration, BL: 0.90 pg/mL and 0.97 pg/mL and 1.02 pg/mL and 1.85 pg/mL and 1.30 pg/mL and 1.11 pg/mL and 1.54 pg/mL
TNF-alpha; [1]
  TNF-α concentration, PRE: 4.26 pg/ml (2×) and 3.96 pg/ml and 4.69 pg/ml and 4.59 pg/ml and 4.31 pg/ml and 4.42 pg/ml
Taz1
  Taz1 mRNA: attenuated decrease, fold: 1.23 fold
NT-pro BNP; treatment for 12 weeks
  plasma NT-pro BNP levels (FIG. 5), in words: normal or near normal levels
NT-pro BNP; treatment for six weeks
  plasma NT-pro BNP levels (FIG. 5), in words: reduced NT-pro BNP levels
NT-pro BNP; plasma, average of 7 HF dogs, 6 weeks after initiating therapy, 0.5 mg/kg/day
  NT-pro BNP, 6Wk, AVG: 667 pg/mL
NT-pro BNP; plasma, average of 7 HF dogs, 12 weeks after initiating therapy, 0.5 mg/kg/day
  NT-pro BNP, 12 Wk, AVG: 354 pg/mL
NT-pro BNP; plasma, individual HF dogs, 6 weeks after initiating therapy, 0.5 mg/kg/day
  NT-pro BNP, 6Wk: 695 pg/ml (2×) and 559 pg/ml and 796 pg/ml and 680 pg/ml and 593 pg/ml and 654 pg/ml
NT-pro BNP; plasma, individual HF dogs, 12 weeks after initiating therapy, 0.5 mg/kg/day
  NT-pro BNP, 12 Wk: 299 pg/mL and 422 pg/mL and 234 pg/mL and 294 pg/mL and 417 pg/mL and 393 pg/mL and 423 pg/mL
NT-pro BNP; plasma, peptide group average (7 dogs), baseline before heart failure (before treatment)
  NT-pro BNP, BL, AVG: 278 pg/mL
NT-pro BNP; plasma, peptide group average (7 dogs), heart failure prior to initiating therapy
  NT-pro BNP, Pre, AVG: 1128 pg/mL
NT-pro BNP; plasma, peptide group, individual dogs, baseline before heart failure (before treatment)
  NT-pro BNP, BL: 257 pg/mL and 203 pg/mL and 271 pg/mL and 320 pg/mL and 289 pg/mL and 265 pg/mL and 346 pg/mL
NT-pro BNP; [1]
  NT-pro BNP, Pre: 1512 pg/mL and 1223 pg/mL and 1078 pg/mL and 1034 pg/mL and 1018 pg/mL and 1090 pg/mL and 941 pg/mL
interleukin-6 (IL-6); treatment for 12 weeks
  plasma IL-6 levels (FIG. 3), in words: near normal levels
interleukin-6 (IL-6); treatment for six weeks
  plasma IL-6 levels (FIG. 3), in words: reduced IL-6 levels
